Data on 1 compound can be found in patent US8809310B2, “Use of rasagiline for the treatment of multiple system atrophy” (priority 2006, dated 2014).

In data set [1] the test system is (PLP) α-synuclein transgenic mice. The following applies: MSA mice (3-NP +), N=10. An excerpt: A suitable model for MSA is described by Stefanova et al. (Am. J. Pathol. March 2005, 166(3):869-76; Trends Neurosci. 2005, 28(9):501-6). This model acts by inducing oxidative stress in transgenic mice with oligodendroglial α-synuclein expression. […] The selective neuronal cell death pattern typical of MSA is achieved by combining mitochondrial inhibition by 3-nitropropionic acid (3-NP).
A total of 36 (PLP) α-synuclein transgenic mice over 6 months of age were used.
Chronic intoxication with 3-NP was done according to a previously used paradigm pathiology (i.e. 4×10 mg/kg, 4×20 mg/kg, 4×40 mg/kg, 4×50 mg/kg intraperitoneal injections every 12th hour for a period of two weeks) to model MSA pathology.
The mice were further divided into groups as follows: Control group (saline tested, n=10), low dose rasagiline group (0.6 mg/kg; n=10) and high dose rasagiline group ([…]; n=10). Rasagiline was delivered subcutaneously every 24 hours starting 24 hours one week before the intoxication with 3-NP and lasting for an additional week, i.e., for a total period of 4 weeks.

The target in another data set is MAO-A (Mus musculus, UniProt Q64133). The following applies: for MAO-A activity (mean dpm ± SD): MSA mice, brain homogenate, 14C-HT 100 μM, end of experiment. The protocol:
(§1) Efficacy of Rasagiline treatment was determined by biochemical measurement of the inhibition of MAO-A and MAO-B activity in the different treatment groups. Two mice per group were sacrificed under deep thiopental anesthesia by cervical […]. Brains were immediately removed and snap-frozen in liquid nitrogen and further stored at −80° C. Tissue homogenates were preincubated with clorgyline or deprenyl in order to inhibit MAO-A or MAO-B respectively. Incubation was carried on with 14C-labeled PEA (10 μM) for MAO-B determination and 14C-HT (100 μM) for MAO-A determination. Reaction was stopped by acidification and labeled metabolites were extracted into toluene/ethyl acetate and counted by beta-counter.

For the next data set, the target named is MAO-B (Mus musculus, UniProt Q8BW75). The following applies: for MAO-B activity (mean dpm ± SD): MSA mice, brain homogenate, 14C-PEA 10 μM, end of experiment. The procedure:
as §1

For data set [2], the system named is (PLP) α-synuclein transgenic mice. The following applies: fourth week (day 25). The protocol: The pole test (Id.; and Matsuura et al., Pole test is a useful method for evaluating the mouse movement disorder caused by striatal dopamine depletion, Journal of Neuroscience Methods 1997; 73:45-8) was performed on day 17 and day 25 of the experiment. Each mouse was habituated to the test the day before. A wooden vertical pole with rough surface, 1 cm wide and 50 cm high was applied. The mouse was placed with the head up at the top of the pole and the time for turning downwards (Tturn) as well as the total time for climbing down the pole until the mouse reached the floor with the four paws (Ttotal) was taken in 5 trials. The best performance of all the five trials was kept for the statistical analysis (Fernagut et al., In vivo models of multiple system atrophy, Mov Disord. 2005; 20 Suppl 12:S57-S63). If a mouse was unable to perform the test, a default value of 120 s was taken into account.

Data set [3] shares this test system. The following applies: any of the time points studied (day 16, day 26). The procedure:
To test the locomotor activity of the mice we applied the Flex Field Activity System, (San Diego Instruments, San Diego, Calif.) which allows monitoring and real-time counting of horizontal and vertical locomotor activity by 544 photo-beam channels. Mice were placed in the center of the open field (40.5×40.5×36.5 cm) and tested for a 15 min period always at the same time of the day (5.00 p.m.). The tests were performed in a dark room that was completely isolated from external noises and light during the test period. The sum of counts in the horizontal and vertical plane at day 16 and on day 26 of the experiment was further analyzed.

For data set [4] the test system is unchanged. The protocol:
The stride length of the hindlimbs of the mice was measured at baseline and before sacrificing them after a habituation to the test for 3 days before its performance. The limbs of each animal were wetted with a non-toxic food color and the mouse was let to run on a strip of paper (42 cm long, 4.5 cm wide) down a bright corridor towards a dark goal box. After four runs, the stride length of the forelimbs and the hindlimbs on each side was measured, excluding the beginning (7 cm) and the end (7 cm) of the run. The mean stride length for was determined.
Stride length test was performed on day 18-19 and day 27-28 after first 3-NP intoxication.

The test system is the same in data set [5]. The protocol:
Neuropathological examination of the brains was performed after transcardial perfusion of 4% paraformaldehyde (PFA) under deep thiopental anesthesia. Brains were quickly removed, postfixed in the same fixative for 1 hour at 4° C., and then kept in 25% sucrose solution until they sunk. The brains were slowly frozen in with 2-methylbutan and kept at −80° C. until processing. Serial sections throughout the whole brain were cut on a freezing microtome (Leica, Nussloch, Germany).
(§2) Sections underwent the following immunohistochemical stainings: tyrosinehydroxylase antibody (Sigma) used to visualize dopaminergic neurons in SNc, dopamine and cyclic adenosine 3′,5′-monophosphate-regulated phosphoprotein 32 (DARPP-32)(New York Hospital-Cornell Medical Centre) used to visualize medium sized spiny neurons in striatum and Purkinje cells in cerebellar cortex, Glial Fibrillary Acidic Protein (GFAP)(Roche Diagnostics GmBH) used to visualize astroglial reaction, CD11b (Serotec) used to visualize microglial reaction and Bcl-2, Bcl-X1 and Bax apoptic/anti-apoptotic markers. One full series was stained with cresyl violet.
(§3) The following antibodies were used in this study: monoclonal anti-DARPP-32 (1:2000), monoclonal anti-TH (Sigma, St. Louis, Mo., 1:500), monoclonal anti-GFAP (Roche, Vienna, Austria 1:100), monoclonal anti-CD11b (Serotec, Oxford, UK, 1:100), polyclonal anti-activated capase 3 (Transduction Laboratories, Lexington, Ky., 1:200), monoclonal anti-Bax (Santa Cruz Biotechnology, 1:100), monoclonal anti-Bc12 (Santa Cruz Biotechnology, 1:100), and monoclonal anti-BclX (Chemicon, Temecula, Calif., 1:100). Secondary antibodies were biotinylated horse anti-mouse IgG, goat anti-rat IgG, or goat anti-rabbit IgG (Vector, Burlingame, Calif.). Immunohistochemical reaction was developed with 3,3′-diaminobenzidine.
All morphometric analyses were done blinded to the treatment of the animal's observer. Stereology was applied using a computer-assisted image analysis system (Nikon E-800 microscope, Nikon digital camera DXM 1200; Stereo Investigator Software, MicroBrightField Europe e.K., Magdeburg, Germany). […] Purkinje cells in the cerebellum and glial reaction throughout the entire brain are analyzed to the Paxinos and Franklin mouse brain atlas (1997, Academic Press, San Diego). Purkinje cells were counted in a region outlined to include only the Purkinje cell layer (German et al., Degeneration of neurons and glia in the Niemann-Pick C mouse is unrelated to the low-density lipoprotein receptor. Neuroscience, 2001; 105:999-1005).
The source holds these as a separate data set.

For data set [6] the test system is unchanged. The following applies: mouse, in vivo.
Source text: as §2, §3

For data set [7] the test system is unchanged. The following applies: daily rating, whole experimental period.
Experimental: Behavioral tests were performed blindly to the treatment status according to the following procedures and described in Fernagut et al.: clinical scale, stride length, spontaneous locomotor activity.
The groups were evaluated daily during the whole experimental period with a general motor score according to a previously published rating scale.
A previously described rating scale (Fernagut et al., Subacute systemic 3-nitropropionic acid intoxication induces a distinct motor disorder in adult C57B1/6 mice: Behavioural and histopathological characterization, Neuroscience 2002; 114:1005-17) was used for evaluation of hindlimb clasping, general locomotor activity, hindlimb dystonia, truncal dystonia and postural challenge response (0, normal; 1 slightly disturbed, and 2 markedly disabled). […] A total daily score per animal for each session was determined as well as a total sum score per animal per group for the whole testing period.
Data set [8] has as its system early Parkinson's disease patients. The following applies: rasagiline-treated subjects; cited from earlier work.
The mark [9] stands for this setting: 2.5 mg/kg daily for 4 weeks, without reaching neuronal numbers of healthy controls.

The structures appear in SMILES notation. Like-named read-outs stand apart in the source and are kept apart here.

Chain of MAO-A (Q64133 whole entry): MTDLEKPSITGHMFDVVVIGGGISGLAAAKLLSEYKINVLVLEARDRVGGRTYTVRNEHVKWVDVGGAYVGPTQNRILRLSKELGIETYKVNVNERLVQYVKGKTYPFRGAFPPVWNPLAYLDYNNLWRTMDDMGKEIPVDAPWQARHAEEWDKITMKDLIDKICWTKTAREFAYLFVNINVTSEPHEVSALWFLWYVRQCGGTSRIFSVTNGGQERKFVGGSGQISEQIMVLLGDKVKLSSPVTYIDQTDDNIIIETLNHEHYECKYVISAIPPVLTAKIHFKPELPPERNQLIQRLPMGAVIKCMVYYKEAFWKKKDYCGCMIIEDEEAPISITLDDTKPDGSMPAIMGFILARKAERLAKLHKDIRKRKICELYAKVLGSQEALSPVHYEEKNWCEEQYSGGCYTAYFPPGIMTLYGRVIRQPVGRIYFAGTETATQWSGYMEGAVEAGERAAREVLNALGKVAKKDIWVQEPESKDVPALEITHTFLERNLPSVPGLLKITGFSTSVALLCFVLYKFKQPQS
Chain of MAO-B (Q8BW75 whole entry): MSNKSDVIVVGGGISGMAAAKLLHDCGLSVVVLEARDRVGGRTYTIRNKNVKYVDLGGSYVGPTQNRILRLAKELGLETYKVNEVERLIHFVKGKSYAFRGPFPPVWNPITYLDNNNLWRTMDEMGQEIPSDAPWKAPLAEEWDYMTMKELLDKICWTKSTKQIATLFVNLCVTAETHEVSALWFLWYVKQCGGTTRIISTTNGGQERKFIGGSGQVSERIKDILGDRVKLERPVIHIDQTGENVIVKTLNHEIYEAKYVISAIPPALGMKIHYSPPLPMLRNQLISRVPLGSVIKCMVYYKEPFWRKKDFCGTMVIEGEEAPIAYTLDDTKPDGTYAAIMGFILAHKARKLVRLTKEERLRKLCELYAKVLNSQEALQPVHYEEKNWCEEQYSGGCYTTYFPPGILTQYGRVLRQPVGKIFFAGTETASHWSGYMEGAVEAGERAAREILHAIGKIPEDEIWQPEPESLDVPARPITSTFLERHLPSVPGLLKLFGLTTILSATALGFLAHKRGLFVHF

As to `C#CCN[C@@H]1CCc2ccccc21` [Rasagiline, R(+)-N-propargyl-1-aminoindan], the “Mortality N (%)” value in data set [1] (Rasagiline 0.8 mg/kg b.w.) is 2 (20) N (%). In addition, in data set [1] (Rasagiline 2.5 mg/kg b.w.), the “Mortality N (%)” value is reported as 1 (10) N (%). Also, the “MAO-A activity (mean dpm ± SD)” value on MAO-A (Rasagiline 0.8 mg/kg) was 1463.10 ± 219 dpm. The “MAO-A activity (mean dpm ± SD)” value on MAO-A (Rasagiline 2.5 mg/kg) is 724.06 ± 65 dpm. On MAO-A (both concentrations), the “inhibition of MAO activity (MAO-A)” value is “significant inhibition”. The “MAO-B activity (mean dpm ± SD)” value at MAO-B (Rasagiline 0.8 mg/kg) was 370.01 ± 321 dpm. Also, the “MAO-B activity (mean dpm ± SD)” value on MAO-B (Rasagiline 2.5 mg/kg) is recorded as 80.94 ± 14 dpm. In addition, the “inhibition of MAO activity (MAO-B)” value against MAO-B (both concentrations) was “significant inhibition”. Moreover, in [2], the “pole test T-total (prolonged movement time)” value is “significantly reduced” and the “pole test T-turn (prolonged movement time)” value is “significantly reduced”. In [3], the open field activity result was “observed neither upon open field activity” and the rearing behavior entry was “nor on rearing behavior”. In data set [4] (day 18-19), the stride length result is listed as “reversed shortened stride length”. For the same compound, in data set [4] (day 27-28), the stride length entry is “reversed stride length impairment”. In [5] (setting [9]), the “protection of Purkinje cells” value was “partial protection” and the “protection of neurons of the inferior olives” value is reported as “partial protection”. Further, the “protection of pontine nuclei against 3-NP intoxication” value in data set [5] (mouse, in vivo) is given as “completely protected”. Besides, the “loss of striatal DARPP-32-immunoreactive medium spiny neurons” value in data set [5] (striatum, did not reach levels of non-intoxicated controls) was “partially prevented”. In addition, the “loss of TH-immunopositive neurons in SNc” value in data set [5] (substantia nigra pars compacta) is reported as “completely protected”. Moreover, in data set [6], the “CD11b staining pattern (microglial activation), treated vs untreated mice” value is reported as “No differences” and the “GFAP staining pattern (astroglial activation), treated vs untreated mice” value is reported as “No differences”. Further, the “general motor impairment (general motor score)” value in [7] is “significant improvement”. In data set [8], the “most commonly reported adverse events” value is “pain, headache and dizziness”; the “side effects typical of other dopaminergic medications (hallucinations, somnolence, edema, nausea, vomiting, diarrhea)” value was “infrequently reported”.
